The values below come from article PMC6628648, “Enabling microbial syringol conversion through structure-guided protein engineering” (Proceedings of the National Academy of Sciences of the …, 2019).

The target in one test is T1, WT GcoA (Amycolatopsis sp., UniProt P0DPQ7).
T1 construct: GST (N, cleaved yes); made in house; host or cells: E. coli Rosetta 2 (DE3)
T1 sequence (P0DPQ7 1-407): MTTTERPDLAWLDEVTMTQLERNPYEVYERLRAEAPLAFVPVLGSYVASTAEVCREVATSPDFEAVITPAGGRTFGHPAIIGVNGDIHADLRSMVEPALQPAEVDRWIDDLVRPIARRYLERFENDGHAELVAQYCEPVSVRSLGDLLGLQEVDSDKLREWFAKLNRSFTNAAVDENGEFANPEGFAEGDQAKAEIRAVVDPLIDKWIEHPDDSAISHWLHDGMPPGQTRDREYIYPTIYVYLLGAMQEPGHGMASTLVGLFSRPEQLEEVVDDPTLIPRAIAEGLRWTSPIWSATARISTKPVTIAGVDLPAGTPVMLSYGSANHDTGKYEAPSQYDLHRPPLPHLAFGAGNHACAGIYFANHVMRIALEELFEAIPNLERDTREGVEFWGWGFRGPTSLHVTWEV
Description: NADH consumption assay (steady-state kinetics, specific activity) with GcoB. The following applies: for Specific activity: WT, NADH consumption, saturating (200 µM) substrate, pH 7.5, 25°C. The format is biochemical, Amycolatopsis sp. ATCC 39116.

In the next test the target is T2, GcoA variant F169S (Amycolatopsis sp., UniProt P0DPQ7, F169S).
T2 construct: GST (N, cleaved yes); made in house; host or cells: E. coli Rosetta 2 (DE3)
Description: NADH consumption assay (specific activity) with GcoB. The format is biochemical, Amycolatopsis sp. ATCC 39116. The following applies: saturating (200 µM) substrate, pH 7.5, 25°C.

The target in a further test is T3, GcoA variant F169H (Amycolatopsis sp., UniProt P0DPQ7, F169H).
T3 construct: GST (N, cleaved yes); made in house; host or cells: E. coli Rosetta 2 (DE3)
Described as above. The format is biochemical, Amycolatopsis sp. ATCC 39116. As to conditions: saturating (200 µM) substrate, pH 7.5, 25°C.

Test [1] relates to Pseudomonas putida KT2440 strain AM155 lacking GcoAB. Description: In vivo syringol conversion in shake flasks, 1H NMR of culture medium. The test is classed as cell-based. The following applies: AM155 (does not express GcoA), 1 mM syringol. Here is the method: (§1) A standard for 2-pyrone 6-carboxylate was not available; however, we did verify the presence of 2-pyrone 6-carboxylate using LC-MS-MS (SI Appendix, Fig. S15). While small amounts of pyrogallol, 3MC, and 2-pyrone 6-carboxylate were also observed with the WT GcoAB (AM156), nearly 60% of the original syringol remained after 6 h.
(§2) Strains used for shake flask experiments were grown overnight in LB media and resuspended the next day in M9 minimal media with 20 mM glucose, as described in SI Appendix. Cells were grown until they reached an OD600 of approximately 1, at which point syringol was added at a final concentration of 1 mM. ^1H NMR spectroscopy was used to analyze syringol consumption.
(§3) 572 nm was recorded by a Varioskan Lux microplate reader (Thermo Scientific). The absorbance was compared to a standard curve with 0-100 μM H2O2 to quantify the amount of peroxide produced in the reactions.
(§4) Purified protein was buffer exchanged into 10 mM HEPES pH 7.5 and concentrated to an A280 value of 12, as measured on a NanoDrop 2000 spectrophotometer (Thermo Fisher). Crystals of GcoA were grown with 2.4 M sodium malonate and 200 mM substrate, dissolved in 40% DMSO where necessary. Crystals were cryocooled directly in liquid N2 without further addition of cryoprotectants. […]
(§5) Strains evaluated in shake flask experiments were initially grown overnight in LB media with appropriate antibiotics from glycerol stocks and resuspended the following day in M9 minimal media (6.78 g/L Na2HPO4, 3 g/L KH2PO4, 0.5 g/L NaCl, 1 g/L NH4Cl, 2 mM MgSO4, 100 µM CaCl2, and 40 µM FeSO4 . 7H2O) supplemented with 20 mM glucose (Sigma-Aldrich) and […] kanamycin.
(§6) Cells were grown until they reached an OD600 of 1, at which point syringol (Sigma-Aldrich) was added to a final concentration of 1 mM. Syringol concentrations were quantified using any 1H NMR, and spectra were collected using a Bruker Avance III HD 400 MHz Spectrometer and analyzed using Bruker TopSpin3.7 software. For identification of unknown compounds, samples were analyzed via LC-MS-MS using the Acquity UPLC system (Waters Inc.). […]

The subject of test [2] is Pseudomonas putida KT2440 strain AM156 expressing WT GcoAB. The description is as above. As to conditions: 20 mM glucose, 1 mM syringol. The format is cell-based. How it is done: as §1, §2, §3, §4, §5, §6
The test system of test [3] is Pseudomonas putida KT2440 strain AM157 expressing GcoA-F169A and GcoB. Described as above. The test is classed as cell-based. As to conditions: 20 mM glucose, 1 mM syringol. Here is the method:
as §1, §2, §3, §4, §5, §6

The mark [4] stands for this setting: WT GcoA, apparent, 0.2 µM GcoAB, 300 µM NADH, 210 µM O2, 0–300 µM substrate, pH 7.5, 25 °C.

T2 sequence (P0DPQ7 whole entry F169S): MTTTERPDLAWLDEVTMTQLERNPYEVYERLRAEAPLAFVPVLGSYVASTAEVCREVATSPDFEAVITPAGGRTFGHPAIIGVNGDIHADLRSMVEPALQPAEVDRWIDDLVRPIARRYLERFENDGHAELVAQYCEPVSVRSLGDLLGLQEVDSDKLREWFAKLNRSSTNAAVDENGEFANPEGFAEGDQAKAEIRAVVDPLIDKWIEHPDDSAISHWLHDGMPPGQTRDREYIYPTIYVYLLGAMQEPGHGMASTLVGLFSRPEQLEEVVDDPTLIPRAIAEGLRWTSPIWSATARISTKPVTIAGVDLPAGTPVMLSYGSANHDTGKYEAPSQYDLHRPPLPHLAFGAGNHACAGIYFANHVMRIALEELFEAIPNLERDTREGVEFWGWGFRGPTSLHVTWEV
T3 sequence (P0DPQ7 whole entry F169H): as the sequence (P0DPQ7 whole entry F169S) above, with S169H counted along it

Take `COc1cccc(O)c1O` [3MC, 3-methoxycatechol]: the Specific activity at WT GcoA amounted to 3.2 ± 0.2 μmol sec-1 μmol-1 GcoA; on GcoA variant F169S, 6.0 ± 0.8 μmol sec-1 μmol-1 GcoA; on GcoA variant F169H it was 4.3 ± 0.4 μmol sec-1 μmol-1 GcoA.

With `COc1cccc(OC)c1O` [syringol, 2,6-dimethoxyphenol], at WT GcoA (WT GcoA 0.2 μM, 300 μM NADH, 210 μM O2, pH 7.5, 25 °C), the “demethylation by WT GcoA” value is listed as “unable to demethylate syringol”. The Specific activity is recorded as 5.1 ± 0.9 μmol sec-1 μmol-1 GcoA on GcoA variant F169S and 3.9 ± 0.2 μmol sec-1 μmol-1 GcoA on GcoA variant F169H. Further, the “syringol conversion after 6 h” value in test [1] is “no conversion”. Besides, the “original syringol remaining after 6 h” value in test [2] is listed as roughly 60%. The “syringol 1H NMR peaks in culture medium after 6 h” value in test [3] is “completely disappeared”.

On to `COc1ccccc1O` [guaiacol, 2-methoxyphenol], for which, on WT GcoA (setting [4]), the Km (as a rule, the concentration of substrate that gives half-maximal velocity) amounted to 60 ± 10 µM. In addition, on WT GcoA (setting [4]), the kcat – broadly, the maximal rate divided by the concentration of active sites – was 6.8 ± 0.02 s⁻¹. In addition, the Specific activity at WT GcoA is 5.0 ± 0.1 μmol sec-1 μmol-1 GcoA; at GcoA variant F169S, 5.7 ± 0.8 μmol sec-1 μmol-1 GcoA; on GcoA variant F169H, 7.9 ± 3 μmol sec-1 μmol-1 GcoA.
